Where “and” joins values, the source holds several entries; their conditions need not be identical. Identical values can stand only once. Toxic doses and inconclusive results are not listed. Rule as the data show it: active = T/C of 150% or more; inactive = T/C below 125%.
Test system: L1210 leukemia ip in BDF1 mice, survival T/C
Experiment: NCI In Vivo Anticancer Drug Screen. Data for tumor model L1210 Leukemia (intraperitoneal) in B6D2F1 (BDF1) mice
Details: endpoint: mean survival time, higher = longer survival
Method in brief: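 Survival endpoint. Drug-treated group vs vehicle group, expressed as T divided by C. Tumor passaged by transplantation.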

[1] = dose: 100.0 mg/kg/injection, schedule: Q01DX009 (ip), vehicle: Klucel (hydroxypropylcellulose) (HPC)
[2] = dose: 100.0 mg/kg/injection, schedule: Q04DX003 (ip), vehicle: Klucel (hydroxypropylcellulose) (HPC)
[3] = dose: 200.0 mg/kg/injection, schedule: Q01DX009 (ip), vehicle: Klucel (hydroxypropylcellulose) (HPC)
[4] = dose: 200.0 mg/kg/injection, schedule: Q04DX003 (ip), vehicle: Klucel (hydroxypropylcellulose) (HPC)
[5] = dose: 400.0 mg/kg/injection, schedule: Q01DX009 (ip), vehicle: Klucel (hydroxypropylcellulose) (HPC)
[6] = dose: 400.0 mg/kg/injection, schedule: Q04DX003 (ip), vehicle: Klucel (hydroxypropylcellulose) (HPC)
[7] = dose: 100.0 mg/kg/injection, schedule: Q04DX002 (ip), vehicle: saline
[8] = dose: 100.0 mg/kg/injection, schedule: Q04DX003 (ip), vehicle: saline
[9] = dose: 200.0 mg/kg/injection, schedule: Q04DX002 (ip), vehicle: saline
[10] = dose: 200.0 mg/kg/injection, schedule: Q04DX003 (ip), vehicle: saline
[11] = dose: 400.0 mg/kg/injection, schedule: Q04DX002 (ip), vehicle: saline
[12] = dose: 100.0 mg/kg/injection, schedule: Q01DX001 (ip), vehicle: saline
[13] = dose: 100.0 mg/kg/injection, schedule: Q01DX001 (ip), vehicle: saline with Tween-80
[14] = dose: 100.0 mg/kg/injection, schedule: Q01DX009 (ip), vehicle: saline with Tween-80
[15] = dose: 100.0 mg/kg/injection, schedule: Q04DX003 (ip), vehicle: saline with Tween-80
[16] = dose: 200.0 mg/kg/injection, schedule: Q01DX001 (ip), vehicle: saline with Tween-80
[17] = dose: 200.0 mg/kg/injection, schedule: Q01DX009 (ip), vehicle: saline with Tween-80
[18] = dose: 200.0 mg/kg/injection, schedule: Q04DX002 (ip), vehicle: saline with Tween-80
[19] = dose: 200.0 mg/kg/injection, schedule: Q04DX003 (ip), vehicle: saline with Tween-80
[20] = dose: 400.0 mg/kg/injection, schedule: Q01DX001 (ip), vehicle: saline with Tween-80
[21] = dose: 400.0 mg/kg/injection, schedule: Q01DX009 (ip), vehicle: saline with Tween-80
[22] = dose: 400.0 mg/kg/injection, schedule: Q04DX002 (ip), vehicle: saline with Tween-80
[23] = dose: 400.0 mg/kg/injection, schedule: Q04DX003 (ip), vehicle: saline with Tween-80

Measured: T/C

CCOC(=O)CSC(=S)N(C)C
inactive: dose: 100.0 mg/kg/injection, schedule: Q01DX001 (ip), vehicle: Klucel (hydroxypropylcellulose) (HPC) 102 % of control | [1] 95 % of control and 96 % of control and 111 % of control | dose: 100.0 mg/kg/injection, schedule: Q04DX002 (ip), vehicle: Klucel (hydroxypropylcellulose) (HPC) 102 % of control and 106 % of control | [2] 101 % of control | dose: 200.0 mg/kg/injection, schedule: Q01DX001 (ip), vehicle: Klucel (hydroxypropylcellulose) (HPC) 102 % of control | [3] 97 % of control and 104 % of control and 89 % of control | dose: 200.0 mg/kg/injection, schedule: Q04DX002 (ip), vehicle: Klucel (hydroxypropylcellulose) (HPC) 102 % of control and 103 % of control | [4] 93 % of control | dose: 400.0 mg/kg/injection, schedule: Q01DX001 (ip), vehicle: Klucel (hydroxypropylcellulose) (HPC) 96 % of control | [5] 89 % of control | dose: 400.0 mg/kg/injection, schedule: Q04DX002 (ip), vehicle: Klucel (hydroxypropylcellulose) (HPC) 103 % of control and 104 % of control | [6] 93 % of control

Cc1cc(C)[nH]c(=S)n1
inactive: [7] 101 % of control | [8] 97 % of control | [9] 101 % of control | [10] 89 % of control | [11] 94 % of control

Cc1cc(NCCN(C(C)C)C(C)C)nc(/N=C(\N)Nc2ccc(Cl)c(Cl)c2)n1
inactive: dose: 4.69 mg/kg/injection, schedule: Q01DX009 (ip), vehicle: Klucel (hydroxypropylcellulose) (HPC) 95 % of control | dose: 9.38 mg/kg/injection, schedule: Q01DX009 (ip), vehicle: Klucel (hydroxypropylcellulose) (HPC) 93 % of control | dose: 18.75 mg/kg/injection, schedule: Q01DX009 (ip), vehicle: Klucel (hydroxypropylcellulose) (HPC) 87 % of control | dose: 75.0 mg/kg/injection, schedule: Q01DX001 (ip), vehicle: other 94 % of control | dose: 150.0 mg/kg/injection, schedule: Q01DX001 (ip), vehicle: other 105 % of control

COC(=O)C1C(C)CCCC1(C)c1ccccc1 (stereo unspecified)
inactive: dose: 100.0 mg/kg/injection, schedule: Q04DX002 (ip), vehicle: gum acacia 103 % of control | dose: 200.0 mg/kg/injection, schedule: Q04DX002 (ip), vehicle: gum acacia 106 % of control | dose: 400.0 mg/kg/injection, schedule: Q04DX002 (ip), vehicle: gum acacia 95 % of control

C1=CCC2CSCC2C1 (stereo unspecified)
inactive: dose: 75.0 mg/kg/injection, schedule: Q01DX009 (ip), vehicle: saline sonified 98 % of control | dose: 150.0 mg/kg/injection, schedule: Q01DX009 (ip), vehicle: saline sonified 98 % of control

Nc1nc2c(=O)[nH]c(=O)[nH]c2n1C1OC(CO)C(O)C1O (stereo unspecified)
inactive: [12] 102 % of control | dose: 200.0 mg/kg/injection, schedule: Q01DX001 (ip), vehicle: saline 111 % of control

Cc1ccc(Nc2cc(Br)c(N)c3c2C(=O)c2ccccc2C3=O)cc1
inactive: [13] 103 % of control | [14] 93 % of control and 94 % of control | dose: 100.0 mg/kg/injection, schedule: Q04DX002 (ip), vehicle: saline with Tween-80 92 % of control | [15] 97 % of control | [16] 102 % of control | [17] 93 % of control and 94 % of control | [18] 86 % of control | [19] 95 % of control | [20] 91 % of control | [21] 96 % of control and 97 % of control | [22] 86 % of control | [23] 90 % of control

O=C(NC(=S)Nc1cc(C(F)(F)F)ccc1Cl)c1cccc([N+](=O)[O-])c1
inactive: [13] 105 % of control | [14] 96 % of control and 108 % of control | [15] 99 % of control | [16] 103 % of control | [17] 92 % of control and 99 % of control | [18] 98 % of control and 118 % of control | [19] 103 % of control | [20] 87 % of control | [21] 92 % of control and 94 % of control | [22] 95 % of control and 102 % of control | [23] 89 % of control

Cc1cc(CO)c(O)c(CO)c1
inactive: dose: 100.0 mg/kg/injection, schedule: Q01DX001 (ip), vehicle: other 108 % of control | dose: 100.0 mg/kg/injection, schedule: Q01DX009 (ip), vehicle: saline 97 % of control | dose: 200.0 mg/kg/injection, schedule: Q01DX001 (ip), vehicle: other 100 % of control | dose: 200.0 mg/kg/injection, schedule: Q01DX009 (ip), vehicle: saline 103 % of control | dose: 400.0 mg/kg/injection, schedule: Q01DX001 (ip), vehicle: other 103 % of control | dose: 400.0 mg/kg/injection, schedule: Q01DX009 (ip), vehicle: saline 103 % of control

COC(=O)CCCCCCCC(=O)O
inactive: [1] 94 % of control | [3] 98 % of control | [5] 102 % of control

CC1(C)OC(=O)CC1c1ccccc1 (stereo unspecified)
inactive: dose: 5.0 mg/kg/injection, schedule: Q01DX001 (ip), vehicle: saline 108 % of control | dose: 10.0 mg/kg/injection, schedule: Q01DX001 (ip), vehicle: saline 101 % of control | dose: 20.0 mg/kg/injection, schedule: Q01DX001 (ip), vehicle: saline 86 % of control | dose: 40.0 mg/kg/injection, schedule: Q01DX001 (ip), vehicle: saline 97 % of control | dose: 80.0 mg/kg/injection, schedule: Q01DX001 (ip), vehicle: saline 101 % of control | [12] 102 % of control | dose: 400.0 mg/kg/injection, schedule: Q01DX001 (ip), vehicle: saline 95 % of control

O=C(O)/C=C/c1c2ccc(=O)cc-2oc2cc(O)ccc12
inactive: [2] 96 % of control | [4] 91 % of control | [6] 105 % of control

CCOC(=O)/C(C#N)=C\c1cc(OC)ccc1OC
inactive: [14] 101 % of control | [15] 96 % of control | [19] 94 % of control | [23] 93 % of control

CC(NC(=O)Oc1ccccc1)Oc1ccccc1 (stereo unspecified)
inactive: [15] 96 % of control | [19] 101 % of control | [23] 96 % of control

CC(CS)CS
inactive: dose: 100.0 mg/kg/injection, schedule: Q01DX001 (ip), vehicle: carboxymethylcellulose (CMC) 95 % of control | dose: 200.0 mg/kg/injection, schedule: Q01DX001 (ip), vehicle: carboxymethylcellulose (CMC) 95 % of control | dose: 400.0 mg/kg/injection, schedule: Q01DX001 (ip), vehicle: carboxymethylcellulose (CMC) 95 % of control

CC(=O)OC1CCC2(C)C(=CCC3C4C/C(=C\N5CCCC5)C(=O)C4(C)CCC32)C1 (stereo unspecified)
inactive: [13] 93 % of control | [16] 90 % of control | [20] 90 % of control

CC(C)(C)N=C=NC(c1ccccc1)(c1ccccc1)c1ccccc1
inactive: [8] 97 % of control | [10] 94 % of control | dose: 400.0 mg/kg/injection, schedule: Q04DX003 (ip), vehicle: saline 87 % of control

C/C=C/C=C\COC(=O)c1ccccc1OCC
inactive: [7] 98 % of control and 107 % of control | [9] 101 % of control and 109 % of control | [11] 109 % of control | dose: 800.0 mg/kg/injection, schedule: Q04DX002 (ip), vehicle: saline 106 % of control

Reference: PubChem BioAssay AID248 (DTP/NCI, 2004)
